In US8476283B2, “[6,5]—bicyclic GPR119 G protein-coupled receptor agonists” (Bristol-Myers Squibb Company, priority 2007, dated 2013) one finds IA and EC50 data, which are given here for 19 compounds.

Each structure is given as a SMILES string.

In this test the target is T1, GPR119 (Homo sapiens, UniProt Q8TDV5).
T1 construct: expressed in transfected cells; host or cells: Flp-In-T-REx 293
T1 sequence (Q8TDV5 1-335): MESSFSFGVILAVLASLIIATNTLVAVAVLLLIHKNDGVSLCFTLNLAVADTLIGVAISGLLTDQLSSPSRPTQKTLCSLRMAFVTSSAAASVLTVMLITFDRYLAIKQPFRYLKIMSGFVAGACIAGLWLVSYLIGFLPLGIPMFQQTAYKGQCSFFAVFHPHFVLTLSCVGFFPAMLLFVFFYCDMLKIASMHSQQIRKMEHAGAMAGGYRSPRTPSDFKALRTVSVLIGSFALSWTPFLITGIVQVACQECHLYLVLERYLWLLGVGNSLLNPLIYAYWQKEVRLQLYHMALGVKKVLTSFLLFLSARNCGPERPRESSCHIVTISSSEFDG
Put plainly: Human Tet-Inducible cAMP Assay (hEC50, Table 1). The test is classed as cell-based. Also on record: IA: scale not given here. Particulars: for IA: IA as printed beside hEC50 (not defined in the text); for EC50: human GPR119 agonist activity, cAMP. The protocol:
The in vitro modulation of GPR119 was determined as follows.
Human Tet-Inducible cAMP Assay
Cell lines using the Flp-In-T-REx 293 tetracycline inducible gene expression system are cultured in culture medium comprising the following components: DMEM#11965, 10% FBS, 2 mM L-glutamine, 200 ug/ml Hygromycin B, and 15 ug/ml blasticidin.
For cAMP assays, cells are plated on 96 well plates (e.g., BD Falcon: REF 353948, black side, clear bottom, TC surface) at a density of about 4.5×10^4 cells per well in growth medium containing 1.0 ug/ml tetracycline (1.0 mg/ml stock). The cells are then incubated for 48 hours at 37° C.
Following the incubation, the growth medium is removed from the wells and the wells rinsed (once) with the assay buffer included in the Hit Hunter cAMP kit (100 μl/well). Following the wash, 20 μl of assay buffer is added to each well, followed by addition of 10 μl of a 3× concentration compound working solution. The solution is then mixed. The final concentration range of compound is from about 10^−5M to about 10^−11M. The reagents are then incubated at 37° C. at 5% CO2 for 1 hour.
The manufacturer's protocol may be followed for cAMP determination. The Hit Hunter cAMP kit protocol is outlined for the HIT-T15 cAMP assays described above.

In general, EC50 refers to the concentration needed to bring the measured effect to its halfway point. Take `CCc1cnc(N2CCC(n3nnc4c(Nc5ccc(S(C)(=O)=O)cc5F)ncnc43)CC2)nc1` [Example 9, 3-(1-(5-Ethylpyrimidin-2-yl)piperidin-4-yl)-N-(2-fluoro-4-(methylsulfonyl)phenyl)-3H-[1,2,3]triazolo[4,5-d]pyrimidin-7-amine]: the IA worked out at 0.56 and the concentration for a half-maximal effect (EC50) amounted to 263 nM.
Taken in the same sequence, the figures for `CS(=O)(=O)c1ccc(Nc2ncnc3c2cnn3C2CCN(c3ncccn3)CC2)c(F)c1` [Example 14, N-(2-Fluoro-4-(methylsulfonyl)phenyl)-1-(1-(pyrimidin-2-yl)piperidin-4-yl)-1H-pyrazolo[3,4-d]pyrimidin-4-amine] were 0.76 and 545 nM.
Compound `CCc1cnc(N2CCC(n3ncc4c(Nc5ccc(S(C)(=O)=O)cc5F)ncnc43)CC2)nc1` [Example 15, 1-(1-(5-Ethylpyrimidin-2-yl)piperidin-4-yl)-N-(2-fluoro-4-(methylsulfonyl)phenyl)-1H-pyrazolo[3,4-d]pyrimidin-4-amine] yielded an IA of 0.94 and a concentration for a half-maximal effect (EC50) of 76.2 nM.
Taken in the same sequence, the figures for `CC(C)OC(=O)N1CCC(n2ncc3c(Oc4cccnc4C#N)ncnc32)CC1` [Example 19, Isopropyl 4-(4-(2-cyanopyridin-3-yloxy)-1H-pyrazolo[3,4-d]pyrimidin-1-yl)piperidine-1-carboxylate] were 0.13 and 505 nM.
On to `CCCc1cnc(N2CCC(n3ncc4c(Nc5ccc(S(C)(=O)=O)cc5F)ncnc43)CC2)nc1` [Example 16, N-(2-Fluoro-4-(methylsulfonyl)phenyl)-1-(1-(5-propylpyrimidin-2-yl)piperidin-4-yl)-1H-pyrazolo[3,4-d]pyrimidin-4-amine], for which the IA is reported as 1.11 and the EC50 came out at 81.8 nM.
Compound `CC(C)(C)OC(=O)N1CCC(n2nnc3c(Oc4ccc(S(C)(=O)=O)cc4)nccc32)CC1` [Example 2, tert-Butyl 4-(4-(4-(methylsulfonyl)phenoxy)-1H-[1,2,3]triazolo[4,5-c]pyridin-1-yl)piperidine-1-carboxylate] showed an IA of 0.29 and a concentration for a half-maximal effect (EC50) of 3550 nM.
Compound `CC(C)(C)OC(=O)N1CCC(n2cnc3c(Nc4ccc(C#N)cc4F)ncnc32)CC1` [Example 4, tert-Butyl 4-(6-(4-cyano-2-fluorophenylamino)-9H-purin-9-yl)piperidine-1-carboxylate] came in with an IA of 0.70 and an EC50 of 287 nM.
`CC(C)(C)OC(=O)N1CCC(n2nnc3c(Nc4ccc(S(C)(=O)=O)cc4F)nccc32)CC1` [Example 1, tert-Butyl 4-(4-(2-fluoro-4-(methylsulfonyl)phenylamino)-1H-[1,2,3]triazolo[4,5-c]pyridin-1-yl)piperidine-1-carboxylate]: the IA stood at 0.55 and the EC50 came to 1390 nM.
Consider `CC(C)OC(=O)N1CCC(n2ncc3c(Nc4ccc(S(C)(=O)=O)cc4F)ncnc32)CC1` [Example 13, Isopropyl 4-(4-(2-fluoro-4-(methylsulfonyl)phenylamino)-1H-pyrazolo[3,4-d]pyrimidin-1-yl)piperidine-1-carboxylate], for which the IA was 0.69 and the EC50 came to 308 nM.
For `Cc1ncccc1Oc1ncnc2c1cnn2C1CCN(C(=O)OCc2ccccc2)CC1.Cl` [Example 17, Benzyl 4-(4-(2-methylpyridin-3-yloxy)-1H-pyrazolo[3,4-d]pyrimidin-1-yl)piperidine-1-carboxylate, hydrochloride salt], in that order: 0.31 and 1900 nM.
In the case of `CC(C)(C)OC(=O)N1CCC(n2nnc3c(Nc4ccc(S(C)(=O)=O)cc4F)ncnc32)CC1` [Example 3, tert-Butyl 4-(7-(2-fluoro-4-(methylsulfonyl)phenylamino)-3H-[1,2,3]triazolo[4,5-d]pyrimidin-3-yl)piperidine-1-carboxylate], the concentration giving a half-maximal response (EC50) is 19.5 nM.
The compound `CS(=O)(=O)c1ccc(Nc2ncnc3c2nnn3C2CCN(c3ncccn3)CC2)c(F)c1` [Example 8, N-(2-Fluoro-4-(methylsulfonyl)phenyl)-3-(1-(pyrimidin-2-yl)piperidin-4-yl)-3H-[1,2,3]triazolo[4,5-d]pyrimidin-7-amine] registered an IA of 0.67 and an EC50 of 218 nM.
Compound `CC(C)OC(=O)N1CCC(n2nnc3c(Nc4ccc(S(C)(=O)=O)cc4F)ncnc32)CC1` [Example 6, iso-Propyl 4-(7-(2-fluoro-4-(methylsulfonyl)phenylamino)-3H-[1,2,3]triazolo[4,5-d]pyrimidin-3-yl)piperidine-1-carboxylate] yielded an IA of 0.86 and a half-maximal effective concentration (EC50) of 140 nM.
`CS(=O)(=O)c1ccc(Nc2ncnc3c2ncn3C2CCN(c3ncccn3)CC2)c(F)c1` [Example 11, N-(2-Fluoro-4-(methylsulfonyl)phenyl)-9-(1-(pyrimidin-2-yl)piperidin-4-yl)-9H-purin-6-amine] showed an IA of 0.81 and an EC50 of 367 nM.
In turn, `CC(C)(C)OC(=O)N1CCC(n2nnc3c(Nc4ccc(C#N)cc4Cl)nccc32)CC1` [Example 5, tert-Butyl 4-(4-(2-chloro-4-cyanophenylamino)-1H-[1,2,3]triazolo[4,5-c]pyridin-1-yl)piperidine-1-carboxylate] had an IA of 0.27 and an EC50 of 411 nM.
`CC(C)OC(=O)N1CCC(n2cnc3c(Nc4ccc(S(C)(=O)=O)cc4F)ncnc32)CC1` [Example 10, iso-Propyl 4-(6-(2-fluoro-4-(methylsulfonyl)phenylamino)-9H-purin-9-yl)piperidine-1-carboxylate] showed an IA of 0.79 and an EC50 of 407 nM.
For `Cc1ncccc1Oc1ncnc2c1cnn2C1CCN(C(=O)OC(C)C)CC1.Cl` [Example 18, Isopropyl 4-(4-(2-methylpyridin-3-yloxy)-1H-pyrazolo[3,4-d]pyrimidin-1-yl)piperidine-1-carboxylate, hydrochloride salt], in that order: 0.17 and 2720 nM.
`CS(=O)(=O)c1ccc(Nc2ncnc3c2cnn3C2CCN(C(=O)OCc3ccccc3)CC2)c(F)c1` [Example 12, Benzyl 4-(4-(2-fluoro-4-(methylsulfonyl)phenylamino)-1H-pyrazolo[3,4-d]pyrimidin-1-yl)piperidine-1-carboxylate] displayed an IA of 0.47 and an EC50 of 203 nM.
Taken in the same sequence, the figures for `CC(C)OC(=O)N1CCC(n2nnc3c(Nc4ccc(S(C)(=O)=O)cc4Cl)ncnc32)CC1` [Example 7, iso-Propyl 4-(7-(2-chloro-4-(methylsulfonyl)phenylamino)-3H-[1,2,3]triazolo[4,5-d]pyrimidin-3-yl)piperidine-1-carboxylate] were 0.68 and 74.9 nM.
